Assay results taken from patent publication US7923448B2, “Purine receptor inhibition as a therapeutic strategy in spinal cord and brain” (priority 2003, dated 2011).
Entries after “also recorded” stand apart in the source; their conditions may differ.

Columns and labels:
[1] = system: non-injured spinal cord; assay: Injection of ATP or ATP analogs into the non-injured spinal cord, TUNEL staining; type: in vivo, rat; conditions: 10 mM, 2 μl injected just lateral to the dorsal horn, 24 hrs later
Description: (§1) Adult female Spague-Dawley rats (220-250 g) were anesthetized with pentobarbital (50 mg/kg i.p.). When unresponsive, a double level laminectomy was performed at the T11 and T12 vertebrae. […] The tip of the rod was reduced to 1 mm to avoid direct traumatic injury of the dorsal venous complex. ATP and agonists (10 mM, 2 μl) were stereotaxically injected into T12 just lateral to the dorsal horn. All agents were purchased from Sigma.
The rats were anesthetized with ketamine (60 mg/kg) and xylazine (10 mg/kg). After 12 hours post-fixation, the spinal cord is cryoprotected in 30% sucrose and cut in serial 20 μm para-saggital sections. Myelin was visualized with Luxol fast blue (Basso et al., “A Sensitive and Reliable Locomotor Rating Scale for Open Field Testing in Rats,” J Neurotrauma 12:1-21 (1995) and Nedergaard et al., “Characterization of Cortical Depolarization Evoked in Focal Cerebral Ischemia,” J Cereb Blood Flow Metab 13:568-574 (1993), which are hereby incorporated by reference in their entirety)). Immunohistochemistry and TUNEL staining were performed as described in (Lin et al., “Gap-Junction-Mediated Propagation and Amplification of Cell Injury,” Nat Neurosci 1:494-500 (1998); Lin et al., “Connexin Mediates Gap Junction-Independent Resistance to Cellular Injury,” J Neurosci 23:430-441 (2003); and Takano et al., “Glutamate Release Promotes Growth of Malignant Glioma,” Nat Med 7:1010-1015 (2001), which are hereby incorporated by reference in their entirety)). Immunofluorescence was visualized using confocal microscopy (BioRad MRC1024) and images analyzed by Metamorph software (Universal Imaging Corp.).
It was then determined whether increased extracellular ATP in itself, in the non-injured spinal cord, was sufficient for induction of cell death. ATP or ATP analogs, all in a concentration of 10 mM (2 μl), were injected into the spinal cord just lateral to the dorsal horn. A large number of TUNEL-positive cells were present 24 hrs later in both gray and white matter (FIG. 2F). […] These observations indicate that raising extracellular ATP concentration is sufficient for induction of cell death in the non-injured spinal cord. In this regard, P2X7 receptors are expressed by most immune cells and their activation leads to multiple downstream events, including cell permeabilization and apoptosis (Chow et al., “Purines and Their Roles in Apoptosis,” Neuropharmacology 36:1149-1156 (1997) and Di Virgilio et al., “Cytolytic P2X Purinoceptors,” Cell Death Differ 5:191-199 (1998), which are hereby incorporated by reference in their entirety)).

[2] = target: T1, P2X7 receptors (Rattus norvegicus, UniProt Q64663); assay: Two-photon calcium imaging (fluo-4) of neurons in spinal cord slices; conditions: 100 μM; for cytosolic calcium concentration (fluo-4 emission) during bath application: 20 min agonist exposure, spinal cord slices
T1 sequence (Q64663 1-595): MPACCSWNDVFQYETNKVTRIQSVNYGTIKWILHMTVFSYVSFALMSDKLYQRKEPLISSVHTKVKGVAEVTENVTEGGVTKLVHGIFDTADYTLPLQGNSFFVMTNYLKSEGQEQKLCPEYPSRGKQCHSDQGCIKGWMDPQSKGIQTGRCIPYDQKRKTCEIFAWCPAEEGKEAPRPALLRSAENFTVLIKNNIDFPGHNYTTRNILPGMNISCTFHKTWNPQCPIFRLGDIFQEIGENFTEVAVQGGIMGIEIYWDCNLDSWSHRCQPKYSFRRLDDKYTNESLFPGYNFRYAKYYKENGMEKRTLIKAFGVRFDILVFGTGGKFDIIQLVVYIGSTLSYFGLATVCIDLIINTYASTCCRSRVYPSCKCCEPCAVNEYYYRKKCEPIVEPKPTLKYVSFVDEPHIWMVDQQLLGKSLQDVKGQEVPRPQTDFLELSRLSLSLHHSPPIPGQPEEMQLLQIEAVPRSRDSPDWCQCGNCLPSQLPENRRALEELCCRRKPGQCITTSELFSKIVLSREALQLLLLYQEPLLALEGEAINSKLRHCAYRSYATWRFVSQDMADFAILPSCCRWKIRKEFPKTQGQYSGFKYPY

[3] = target: T1, P2X7 receptors; assay: Current clamp recording of spiking in spinal cord neurons (slices); conditions: for spiking (action potential firing) of spinal cord neurons: 100 μM, current clamp; for effect on BzATP-induced increase in spike rate (FIG. 4 legend): BzATP 100 μM, OxATP 100 μM, NBQX 10 μM and CPP 5 μM applied combined
[4] = system: spinal cord injury; assay: Weight-drop spinal cord injury, BBB open field locomotor rating scale; type: in vivo, rat; conditions: 1 mM, 2 μl local pretreatment; n=14
Description: as §1
The animals were evaluated daily for 2 weeks after injury and later on a biweekly basis.
It was next determined whether OxATP protected against cell death in the area of high ATP release following spinal cord injury. OxATP (1 mM, 2 μl) was injected locally into the peri-traumatic zone immediately prior to impact. […] The BBB open field locomotor rating scale was used to evaluate recovery of rats receiving OxATP versus vehicle treated control.

[5] = system: spinal cord injury; assay: Weight-drop spinal cord injury, TUNEL-positive cells surrounding the lesion; type: in vivo, rat; conditions: 1 mM, 2 μl injected locally into the peri-traumatic zone immediately prior to impact; 24 hrs
Description: as §1
The rats were anesthetized with ketamine (60 mg/kg) and xylazine (10 mg/kg). After 12 hours post-fixation, the spinal cord is cryoprotected in 30% sucrose and cut in serial 20 μm para-saggital sections. Myelin was visualized with Luxol fast blue (Basso et al., “A Sensitive and Reliable Locomotor Rating Scale for Open Field Testing in Rats,” J Neurotrauma 12:1-21 (1995) and Nedergaard et al., “Characterization of Cortical Depolarization Evoked in Focal Cerebral Ischemia,” J Cereb Blood Flow Metab 13:568-574 (1993), which are hereby incorporated by reference in their entirety)). […] Immunofluorescence was visualized using confocal microscopy (BioRad MRC1024) and images analyzed by Metamorph software (Universal Imaging Corp.).
It was next determined whether OxATP protected against cell death in the area of high ATP release following spinal cord injury. […]

CSc1nc(N)c2ncn([C@@H]3O[C@H](COP(=O)(O)OP(=O)(O)OP(=O)(O)O)[C@@H](O)[C@H]3O)c2n1 [2MeSATP]
apoptosis (TUNEL-positive cells) after injection into spinal cord [1]: not associated with significant injury

Nc1ncnc2c1ncn2[C@@H]1O[C@H](COP(=O)(O)OP(=O)(O)OP(=O)(O)O)[C@@H](O)[C@H]1O [ATP]
apoptosis (TUNEL-positive cells) after injection into spinal cord [1]: induced a significant extent of apoptosis
cytosolic calcium concentration (fluo-4 emission) during bath application [2]: sustained increase in cytosolic calcium concentration
spiking (action potential firing) of spinal cord neurons [3]: increase spiking rate; also recorded: induced high frequency spiking

Nc1ncnc2c1ncn2[C@@H]1O[C@H](COP(=O)(O)OP(=O)(O)OP(O)(O)=S)[C@@H](O)[C@H]1O [ATPγS]
apoptosis (TUNEL-positive cells) after injection into spinal cord [1]: highest extent of apoptosis

O=C(O)C1CN(CCCP(=O)(O)O)CCN1 (stereo not shown) [CPP]
effect on BzATP-induced increase in spike rate (FIG. 4 legend) [3]: no significant effect

Nc1ncnc2c1ncn2[C@@H](C=O)O[C@@H](C=O)COP(=O)(O)OP(=O)(O)OP(=O)(O)O [OxATP, oxidized ATP]
BBB score difference versus vehicle, first week of recovery [4]: 2-4 points
functional recovery (BBB) versus vehicle-treated controls [4]: significant improved recovery
number of TUNEL positive cells surrounding the lesion versus vehicle controls [5]: highly significant reduction
effect on BzATP-induced increase in spike rate (FIG. 4 legend) [3]: prevented BzATP-induced increase in spike rate
effect on agonist-increased spiking activity ([3]; pretreatment, OxATP 300 μM, ATP or BzATP 100 μM): attenuated

Nc1ncnc2c1ncn2[C@@H]1O[C@H](COP(=O)(O)CP(=O)(O)OP(=O)(O)O)[C@@H](O)[C@H]1O [αβATP]
apoptosis (TUNEL-positive cells) after injection into spinal cord [1]: not associated with significant injury

BzATP
apoptosis (TUNEL-positive cells) after injection into spinal cord [1]: induced apoptosis with a potency equivalent to ATP
cytosolic calcium concentration (fluo-4 emission) during bath application [2]: sustained increase in cytosolic calcium concentration
calcium elevation after washout ([2]; 20 min exposure followed by 20 min washout): failed to recover after washout
spiking (action potential firing) of spinal cord neurons [3]: increase spiking rate; also recorded: induced high frequency spiking
spiking rate versus BzATP dose ([3]; n=5-9): increases in a dose-dependent manner
Kd ([3]; read-out: kd (affinity, spiking response), spinal cord neurons): 23.8 µM

NBQX
effect on BzATP-induced increase in spike rate (FIG. 4 legend) [3]: no significant effect
